# Experimental data reported in patent publication US6057371A, “Sigma receptor ligands and the use thereof” (Virginia Commonwealth University, priority 1992, dated 2000).
# Structures can show the parent of a compound that is named as a salt.
# Test system: sigma receptor
# Assay: Sigma receptor binding, [^3 H]DTG, brain membranes (both sigma-1 and sigma-2 sites)
# Set-up: species or system guinea pig
# Settings: Example 5
# Experimental: Sigma receptor binding assays using guinea pig brain membrane homogenates and the radioligand [^3 H]DTG were conducted as described by Weber et al.. […] Briefly, frozen whole guinea-pig brains (Biotrol, Indianapolis, Ind.) were homogenized in 10 volumes (w/v) of ice-cold 320 mM sucrose using a Brinkman polytron. The homogenate was centrifuged at 1,000× g for 20 minutes at 4° C. The supernatant was centrifuged at 20,000× g for 20 minutes at 4° C. The resulting pellet was resuspended in 10 initial volumes of 50 mM Tris/HCl buffer at pH 7.4 and centrifuged at 20,000× g for 20 minutes at 4° C. The resulting pellet was resuspended in 5 initial volumes ice-cold 50 mM Tris/Hcl […], and the final volume was adjusted to yield a protein concentration of 3 mg/ml. Aliquots of 20-ml were stored at -70° C. until used, with no detectable loss of binding.
# The protein concentration in the 1-ml final incubation volume was 800 ug/ml, corresponding to 32 mg of brain tissue (original wet weight) and to a tissue concentration within the linear range for specific binding. […] Incubations were terminated after 90 minutes at room temperature by addition of 4 ml of ice-cold 50 mM Tris/HCl (pH 7.4) and rapid filtration of the membrane suspension through Whatman GF/B glass-fiber filters under vacuum, using a 48-well cell harvester (Brandel). The filters were washed 2 times with 4 ml of 50 mM Tris/HCl (pH 7.4). Each filter was suspended in 10 ml Cytoscint (ICI), and radioactivity was measured by liquid scintillation spectrometry at a counting efficiency of approximately 50%. IC50 values were determined by non-linear regression analyis.
# Further sigma receptor binding assays against [^3 H]DTG and 5HT-1A binding assays were conducted according to the procedure outlined in the previous examples.
# Radioligand Binding. […] Briefly, membranes (P2 microsomal fraction) were diluted 1:3 with 50 mM Tris HCl (pH 7.4) and 0.4 mL was combined with 50 μL [^3 H]DTG (1-2 nM final concentration) and 50 μL of competing drug or buffer. After 90 min at room temperature, incubation was terminated by rapid filtration under vacuum through Whatman GF/B glass fiber filters using a Brandel 48-well cell harvester. Filters were washed three times with 5 mL of cold Tris HCl buffer and each filter was suspended in 5 mL of Cytoscint (ICN Biomedical). Radioactivity was measured by liquid scintillation spectrometry at a counting efficiency of 50%.
row,Compound,"affinity for the sigma receptor, words"
1,CCCc1ccc(CC(C)N(C)CCCc2ccccc2)cc1 (centres unmarked),highest and most selective affinity for the sigma receptor

# Same assay, conditions: Example 6
row,Compound,"change in sigma affinity, words"
1,"CN(CCCCCC1CCCCC1)CC1CCCCC1.Cl [Compound 152, N-Methyl-N-cyclohexylmethyl-5-cyclohexylpentylamine Hydrochloride]",doubles affinity
2,CN(CCCCCc1ccccc1)CCCc1ccccc1 [Compound 136],doubles affinity

# Same assay, conditions: Examples 5 and 6; [^3 H]DTG
row,Compound,change in sigma receptor affinity vs. analog
1,"O=C(O)C(=O)O.c1ccc(CCCCCNc2ccccc2)cc1 [Compound 135, N-Phenyl-5-phenyl pentyl amine Hydrogen Oxal ate]",6 fold

# Same assay, conditions: Table 6; [^3 H]DTG
row,Compound,IC50
1,O=C(CCCCN1CC=C(c2ccc(Cl)cc2)CC1)c1ccc(Cl)cc1 [Compound 182],4.68 nM
2,CN1CCC(OC(c2ccccc2)c2ccccc2)CC1 [Compound 186],656 nM
3,COc1ccc(C(=O)CCCCN2CCC(c3ccccc3)CC2)cc1 [Compound 162],0.9 nM
4,O=C(CCCCN1CCCCC1)c1ccc(Cl)cc1 [Compound 159],1.3 nM
5,C(/C=C/c1ccc2c(c1)OCO2)=C\CN1CCCCC1 [Compound 191],8.14 nM
6,COc1ccc(C(=O)CCCCN2CCCCC2)cc1 [Compound 161],10.9 nM
7,"Oc1cccc(CCNCCCCCc2ccccc2)c1 [Compound 172, N-[2-(3-hydroxyphenyl)ethyl]-5-phenylpentylamine Hydrobromide]",7.46 nM
8,O=C(c1ccccc1)N1CCNCC1 [Compound 54],11800 nM
9,COc1ccc(CCNCCCCCc2ccccc2)cc1 [Compound 146],2.38 nM
10,COc1cccc(C(=O)CCCCN2CCC(c3ccccc3)CC2)c1 [Compound 174],1.1 nM
11,CCCC(Cc1ccccc1)NCCCc1ccccc1 (centres unmarked) [Compound 100],25.6 nM
12,O=C(CCCN1CCCCC1)c1ccc(F)cc1 [Compound 175],42.9 nM
13,c1ccc(CCCCCN2CCN(CCCCCc3ccccc3)CC2)cc1 [Compound 138],2.67 nM
14,OC1(c2ccccc2)CCNC1 (centres unmarked) [Compound 157],6110 nM
15,CCCN(CCCc1ccccc1)[C@@H](C)Cc1ccccc1 [Compound 133],6.44 nM
16,c1ccc(CN2CCCCC2)cc1 [Compound 147],117 nM
17,O=C(CCCCN1CCC(c2ccccc2)CC1)c1ccc(F)cc1 [Compound 178],0.896 nM
18,O=C(CCCCN1CCC(c2ccccc2)CC1)c1ccc(Cl)cc1 [Compound 160],0.62 nM
19,OC1(c2ccccc2)CC2CCC(C1)N2CCCCCc1ccccc1 (centres unmarked) [Compound 153],2.21 nM
20,Oc1ccccc1CCNCCCCCc1ccccc1 [Compound 173],17.2 nM
21,Clc1ccc(CCCCCN2CCC(c3ccccc3)CC2)cc1 [Compound 167],1.96 nM

row,Compound,IC50
1,"CN(CCCCCC1CCCCC1)CC1CCCCC1.Cl [Compound 152, N-Methyl-N-cyclohexylmethyl-5-cyclohexylpentylamine Hydrochloride]",1.76 nM
2,CCC[C@@H](Cc1ccccc1)N(C)CCCc1ccccc1 [Compound 116],10.1 nM
3,CN1CCc2ccccc2C(c2ccccc2)C1 (centres unmarked) [Compound 102],6690 nM
4,O=C(CCCCN1CCC(O)(c2ccc(Cl)cc2)CC1)c1ccc(F)cc1 [Compound 179],2.82 nM
5,O=C(CCCCN1CCC(c2ccc(Cl)cc2)CC1)c1ccc(Cl)c(Cl)c1 [Compound 184],1.98 nM
6,c1ccc(C2CCNCC2)cc1 [Compound 58],2050 nM
7,CCCNC1CCc2ccccc2C1 (centres unmarked) [Compound 63],763 nM
8,COc1cccc(CCNCCCCCc2ccccc2)c1 [Compound 145],1.63 nM
9,"CCCCCCN(C)CCc1ccccc1 [Compound 130, N-Methyl-N-hexyl-2-phenylethylamine Hydrogen Oxalate]",4.23 nM
10,"O=C(O)C(=O)O.c1ccc(CCCCCNc2ccccc2)cc1 [Compound 135, N-Phenyl-5-phenyl pentyl amine Hydrogen Oxal ate]",13.5 nM
11,O=C(CCCCN1CCCCC1)c1ccc(F)cc1 [Compound 177],7.37 nM
12,OC1(c2ccccc2)CCN(CCc2ccccc2)CC1 [Compound 148],6.43 nM
13,O=C1c2ccccc2C(=O)N1CCN1CCN(c2ccccc2)CC1 [Compound 95],17000 nM
14,O=C(CCCCN1CCC(c2ccc(F)cc2)CC1)c1ccc(Cl)cc1 [Compound 181],1.08 nM
15,CN(CCc1ccccc1)CCc1ccccc1 [Compound 108],37.9 nM
16,CCN(CC)CCOC(=O)C(c1ccccc1)c1ccccc1 [Compound 187],50.6 nM
17,c1ccc(CCCNCCc2ccc3ccccc3c2)cc1 [Compound 88],53.4 nM
18,"CCCCCCN(C)CCC [Compound 131, N-Methyl-N-propylhexylamine Hydrogen Oxalate]",46.9 nM
19,O=C(CCCCN1CCC(c2ccc(Cl)cc2)CC1)c1ccc(Cl)cc1 [Compound 183],1.97 nM
20,COc1ccc(CCCCCN2CCC(c3ccccc3)CC2)cc1 [Compound 165],1.27 nM
21,CN1CCC(O)(c2ccc(Cl)cc2)CC1 [Compound 156],131 nM

row,Compound,IC50
1,CC(C)(C)C1(O)CCN(CCc2ccccc2)CC1 [Compound 149],21.5 nM
2,O=C(CCCCN1CCC(c2ccccc2)CC1)c1cccc(Cl)c1 [Compound 171],1.19 nM
3,C1CCC(CCCCCN2CCCCC2)CC1 [Compound 150],0.96 nM
4,COc1cccc(C(=O)CCCCN2CCCCC2)c1 [Compound 169],22.8 nM
5,CN1CCC(O)(c2ccccc2)CC1 [Compound 155],1870 nM
6,CN1C2CCC1CC(O)(c1ccccc1)C2 (centres unmarked) [Compound 154],3960 nM
7,O=C(CCCCN1CCCCC1)c1cccc(Cl)c1 [Compound 170],4.18 nM
8,O=C(CCCCN1CC=C(c2ccc(F)cc2)CC1)c1ccc(Cl)cc1 [Compound 180],2.24 nM
9,c1ccc(CNCc2ccccc2)cc1 [Compound 109],184 nM
10,COc1ccc(CCCCCN2CCCCC2)cc1 [Compound 164],5.19 nM
11,O=C(CCCCN1CCC(c2ccccc2)CC1)c1ccccc1 [Compound 166],1.03 nM
12,CCN(CC)CCOC(=O)C1c2ccccc2-c2ccccc21 [Compound 188],174 nM
13,O=C(CCCCN1CCCCC1)C1CCCC1 [Compound 189],13.5 nM
14,"C(CCNCC1CCCCC1)CCC1CCCCC1 [Compound 151, H-Cyclohexylmethyl-5-cyclohexylpentylamine Hydrochloride]",1.39 nM
15,O=C1c2ccccc2C(=O)N1CCCCN1CCN(Cc2ccccc2)CC1 [Compound 119],21.4 nM
16,COc1ccccc1C1(O)CCNCC1 [Compound 61],14800 nM
17,c1cnc(N2CCNCC2)nc1 [Compound 107],10000 nM
18,CN(CCCCCc1ccccc1)CCCc1ccccc1 [Compound 136],1.78 nM
19,c1ccc(CCCCCN2CC3CCC(CC3)C2)cc1 [Compound 190],1.07 nM
20,COc1ccccc1CCNCCCCCc1ccccc1 [Compound 144],4.39 nM

# Same assay, conditions: Table 7; Phenyl-(CH2)x -NH--(CH2)y -Phenyl; read-out: Ki
row,Compound,Ki
1,"c1ccc(CCCCNCCCc2ccccc2)cc1 [x=3, y=4]",7 nM
2,"c1ccc(CNCc2ccccc2)cc1 [x=1, y=1]",175 nM
3,"c1ccc(CCCCNCCCCc2ccccc2)cc1 [x=4, y=4]",6.7 nM
4,"c1ccc(CCCCCCNCCCc2ccccc2)cc1 [x=3, y=6]",2.6 nM

# Same assay, conditions: running text, Examples 5 and 6; read-out: sigma receptor Ki
row,Compound,Ki
1,N-(3-phenylpropyl)isopropylamine,22 nM
2,"CCCCCCN(C)CCc1ccccc1 [Compound 130, N-Methyl-N-hexyl-2-phenylethylamine Hydrogen Oxalate]",3.8 nM
3,"O=C(O)C(=O)O.c1ccc(CCCCCNc2ccccc2)cc1 [Compound 135, N-Phenyl-5-phenyl pentyl amine Hydrogen Oxal ate]",12 nM
4,"CCCCCCN(C)CCC [Compound 131, N-Methyl-N-propylhexylamine Hydrogen Oxalate]",45 nM
5,CCCN(C)CCCCCc1ccccc1 [Compound 122],2.4 nM

# Target: T1, sigma-1 binding site (Cavia porcellus, UniProt Q60492)
# T1 construct: Guinea pig whole membrane preparations (P2 microsomal fraction); from tissue; host or cells: guinea pig membranes (P2 microsomal fraction), as described by Weber et al; brain inferred from the sister test b489
# Assay: biochemical
# Set-up: species or system guinea pig
# Settings: SIGMA-1 KI vs. 3H-PENTAZOCINE MEAN
# Experimental: [^3 H]DTG was purchased from DuPont/NEN.
# The radioactivity on the filters was determined by scintillation spectrometry at an efficiency of about 50% using Cytoscint (ICN) scintillation fluid.
# T1 sequence (Q60492 whole entry): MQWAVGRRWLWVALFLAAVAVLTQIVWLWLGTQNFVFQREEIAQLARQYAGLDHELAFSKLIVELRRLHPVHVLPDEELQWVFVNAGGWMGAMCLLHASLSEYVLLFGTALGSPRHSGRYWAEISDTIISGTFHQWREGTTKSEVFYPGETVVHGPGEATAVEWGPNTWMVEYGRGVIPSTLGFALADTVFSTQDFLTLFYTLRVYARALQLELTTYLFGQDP
row,Compound,Ki
1,"O=C(CCCN1CCC2(CC1)C(=O)NCN2c1ccccc1)c1ccc(F)cc1 [Spiperone, reference compound]",10000 nM
2,"CCN1CCC[C@H]1CNC(=O)c1c(OC)ccc(Br)c1OC [Remoxipride, reference compound]",312 nM
